Series [1] can be described thus: Plasma protein binding rate (equilibrium dialysis). Type of series: in vitro ADME, mouse. To be noted: pH 7.4. The procedure: (§1) The protein binding rates of the compounds of the present disclosure in human and mouse plasma were determined by the following experimental method.
(§2) • 1. Human plasma (BioIVT), CD-1 mouse plasma (BiolVT) • 2. Na2HPO4 (Sigma S5136-500G) • 3. NaH2PO4 (Sigma 53139-500G) • 4. NaCl (Sigma S5886-IKG) • 5. 96-well equilibrium dialysis plate (HTDialysis LLC, Gales Ferry, CT, HTD96B) and equilibrium dialysis membrane (MWCO 12-14K, 1101) • 6. Positive control compound warfarin • 7. ABI QTrap 5500 liquid chromatography-mass spectrometry
(§3) • 1. Preparation of a buffer with a concentration of 100 mM sodium phosphate and 150 mM NaCl: An alkaline solution with a concentration of 14.2 g/L Na2HPO4 and 8.77 g/L NaCl was prepared with ultrapure water, and an acidic solution with a concentration of 12.0 g/L NaH2PO4 and 8.77 g/L NaCl was prepared with ultrapure water. Then the alkaline solution was titrated to pH 7.4 with the acidic solution to prepare a buffer with a concentration of 100 mM sodium phosphate and 150 mM NaCl. • 2. Preparation of dialysis membrane: The dialysis membrane was soaked in ultrapure water for 60 min to separate the membrane into two pieces, then soaked in 20% ethanol for 20 min, and finally soaked in a buffer used for dialysis for 20 min. • 3. Preparation of plasma: The frozen plasma was quickly thawed at room temperature, and then centrifuged at 3220 g for 10 min at 4° C. to remove clots, and the supernatant was collected into a new centrifugal tube. The pH of the plasma was determined and recorded, and the plasma with pH of 7-8 was used. • 4. Preparation of compound-containing plasma samples: The 10 mM stock solution of the compound of the present invention or the positive control compound was diluted with DMSO to obtain a 200 μM working solution. To 597 μl of human or mouse plasma was added 3 μl of 200 μM compound working solution to obtain a plasma sample with a final concentration of 1 μM. • 5. […]
(§4) The peak areas of the compound on the buffer side and the plasma side were determined. […]
A general note: In equilibrium dialysis only unbound substance equilibrates across the membrane.

Series [2] in a line: Plasma protein binding rate (equilibrium dialysis). Type of series: in vitro ADME, human. To be noted: pH 7.4. The protocol:
as §1, §2, §3, §4

The subject of series [3] is human breast cancer cell line SKBR3. Put plainly: Test 1 of anti-proliferative activity against tumor cells (Cell-Titer Glo). Type of series: cell-based. In a few lines: (§5)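 HCT116, SKBR3 and OVCAR3 cells seeded 24 h, then treated with 9-point 3-fold dilutions (final 0-300 nM); HCT116 incubated 3 days, SKBR3 and OVCAR3 5 days at 37° C, 5% CO2. Viability by Cell-Titer Glo luminescence, inhibition normalised to DMSO and no-cell wells, IC50 fitted.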

Series [4] relates to human ovarian cancer cell line OVCAR3. Described as above. The class given is cell-based. In a few lines: as §5
Series [5] has as its system Human colorectal cancer cell line HCT116. The description is as above. The class given is cell-based. In a few lines: as §5
Setting [6] is: CD-1 mouse plasma, 1 μM, equilibrium dialysis 6 h, 37° C., read-out: % Mouse plasma protein binding rate (converted).
The mark [7] stands for this setting: Homo sapiens, SK-BR-3, 120 h, read-out: SKBR3 Anti-proliferative activity IC50 (nM), SKBR3 cells, cultured 5 days with compound, Cell-Titer Glo.
[8] abbreviates: Homo sapiens, OVCAR-3, 120 h, OVCAR3 cells, cultured 5 days with compound, Cell-Titer Glo, read-out: OVCAR3 Anti-proliferative activity IC50.
Where [9] appears, read: Homo sapiens, HCT-116, 72 h, read-out: HCT116 Anti-proliferative activity IC50 (nM), HCT116 cells, cultured 3 days with compound, Cell-Titer Glo.
Where [10] appears, read: Homo sapiens, SK-BR-3, 120 h, SKBR3 cells, cultured 5 days with compound, Cell-Titer Glo, read-out: SKBR3 Anti-proliferative activity IC50.
[11] abbreviates: Homo sapiens, HCT-116, 72 h, HCT116 cells, cultured 3 days with compound, Cell-Titer Glo, read-out: HCT116 Anti-proliferative activity IC50.

Like-named read-outs stand apart in the source and are kept apart here.

The term IC50 denotes the concentration needed to halve the response being measured. `CC[C@@]1(O)C(=O)OCc2c1cc1n(c2=O)Cc2c-1nc1cc3c(cc1c2CNC(=O)C(O)C1CC1)OCO3` (single isomer, unassigned) [Compound 14-P1]: the fraction unbound at 6 h, 1 μM in series [1] (setting [6]) is 0.363; in series [2] (human plasma, 1 μM, equilibrium dialysis 6 h, 37° C., read-out: % Human plasma protein binding rate (converted)) it was 0.106. Also, the IC50 in series [3] (setting [7]) came out at 2.1 nM; in series [4] (setting [8]), 0.6 nM; in series [5] (setting [9]) it was 9.8 nM.

For the compound `CC[C@@]1(O)C(=O)OCc2c1cc1n(c2=O)Cc2c-1nc1cc3c(cc1c2CNC(=O)C(O)C1CC1)OCO3` (single isomer, unassigned) [Compound 14-P2], the IC50 in series [3] (read-out: SKBR3 Anti-proliferative activity IC50, SKBR3 cells, cultured 5 days with compound, Cell-Titer Glo) turned out to be 3.5 nM; in series [4] (OVCAR3 cells, cultured 5 days with compound, Cell-Titer Glo, read-out: OVCAR3 Anti-proliferative activity IC50), 1 nM; in series [5] (read-out: HCT116 Anti-proliferative activity IC50, HCT116 cells, cultured 3 days with compound, Cell-Titer Glo) it was 12.4 nM.

`CC[C@@]1(O)C(=O)OCc2c1cc1n(c2=O)Cc2c-1nc1cc3c(c(F)c1c2CNC(=O)[C@@H](O)C1CC1)OCO3` (single isomer, unassigned) [Compound 37-P1]: the fraction unbound at 6 h, 1 μM in series [1] (CD-1, mouse, plasma) is 0.327; in series [2] (human, plasma), 0.128. For the same compound, the IC50 in series [3] (setting [10]) came to 2.1 nM; in series [4] (setting [8]) it was 0.5 nM; in series [5] (setting [11]) it was 4.8 nM.

Consider `CC[C@@]1(O)C(=O)OCc2c1cc1n(c2=O)Cc2c-1nc1cc3c(cc1c2CNC(=O)C(O)C1CC1)OCO3` (stereo partly drawn) [Compound 14, 2-cyclopropyl-N-(((S)-7-ethyl-7-hydroxy-8,11-dioxo-7,8,11,13-tetrahydro-10H-[1,3]dioxolo[4,5-g]pyrano[3′,4′:6,7]indolizino[1,2-b]quinolin-14-yl)methyl)-2-hydroxyacetamide], for which the IC50 in series [3] (setting [7]) was found to be 2.2 nM; in series [4] (Homo sapiens, OVCAR-3, 120 h, read-out: OVCAR3 Anti-proliferative activity IC50 (nM)), 0.9 nM; in series [5] (setting [9]), 8.4 nM.

`[2H]C1([2H])Oc2cc3nc4c(c(CNC(=O)C(O)C5CC5)c3cc2O1)Cn1c-4cc2c(c1=O)COC(=O)[C@]2(O)CC` (stereo partly drawn) [Compound 39, 2-cyclopropyl-N-(((S)-7-ethyl-7-hydroxy-8,11-dioxo-7,8,11,13-tetrahydro-10H-[1,3]dioxolo[4,5-g]pyrano[3′,4′:6,7]indolizino[1,2-b]quinolin-14-yl-2,2-d2)methyl)-2-hydroxyacetamide]: the fraction unbound at 6 h, 1 μM in series [1] (setting [6]) is 0.342; in series [2] (human, plasma), 0.081. The IC50 in series [3] (setting [10]) came to 2.9 nM; in series [4] (setting [8]), 1 nM; in series [5] (setting [11]), 9.5 nM.

Source of the values: US20250270227A1, “CAMPTOTHECIN DERIVATIVE, AND PHARMACEUTICAL COMPOSITION AND USE THEREOF” (SIMCERE ZAIMING PHARMACEUTICAL CO., LTD., priority 2021, published 2025).
